{"source": "paper PMC6825211", "about": "(Nature Communications, 2019)", "key": {"[1]": {"target": "T1, MST1 (Homo sapiens, UniProt Q13043)", "T1 sequence (Q13043 1-487)": "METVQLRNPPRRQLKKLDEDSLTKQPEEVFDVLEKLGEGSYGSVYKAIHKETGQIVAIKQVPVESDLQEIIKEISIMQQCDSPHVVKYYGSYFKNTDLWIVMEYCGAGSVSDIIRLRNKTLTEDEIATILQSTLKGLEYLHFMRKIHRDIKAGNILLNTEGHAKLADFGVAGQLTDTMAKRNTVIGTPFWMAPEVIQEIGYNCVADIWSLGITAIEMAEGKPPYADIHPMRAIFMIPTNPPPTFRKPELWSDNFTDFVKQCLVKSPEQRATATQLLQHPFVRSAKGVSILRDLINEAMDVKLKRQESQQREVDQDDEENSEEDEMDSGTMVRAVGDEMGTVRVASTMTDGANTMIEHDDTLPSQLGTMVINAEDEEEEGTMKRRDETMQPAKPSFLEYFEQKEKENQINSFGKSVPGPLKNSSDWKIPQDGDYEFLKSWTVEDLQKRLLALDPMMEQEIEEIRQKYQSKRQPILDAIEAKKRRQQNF", "test": "biochemical"}, "[2]": {"system": "obese diabetic Lepr db/db mice", "test": "db/db model: β-cell proliferation (Ki67)", "format": "in vivo, mouse", "conditions": "dbdb mice"}, "[3]": {"system": "MLD–STZ C57BL/6J mice", "test": "MLD–STZ model: β-cell proliferation (Ki67)", "format": "in vivo, mouse"}, "[4]": {"target": "MST2 (Homo sapiens, UniProt Q13188)", "sequence (Q13188 whole entry, species assumed)": "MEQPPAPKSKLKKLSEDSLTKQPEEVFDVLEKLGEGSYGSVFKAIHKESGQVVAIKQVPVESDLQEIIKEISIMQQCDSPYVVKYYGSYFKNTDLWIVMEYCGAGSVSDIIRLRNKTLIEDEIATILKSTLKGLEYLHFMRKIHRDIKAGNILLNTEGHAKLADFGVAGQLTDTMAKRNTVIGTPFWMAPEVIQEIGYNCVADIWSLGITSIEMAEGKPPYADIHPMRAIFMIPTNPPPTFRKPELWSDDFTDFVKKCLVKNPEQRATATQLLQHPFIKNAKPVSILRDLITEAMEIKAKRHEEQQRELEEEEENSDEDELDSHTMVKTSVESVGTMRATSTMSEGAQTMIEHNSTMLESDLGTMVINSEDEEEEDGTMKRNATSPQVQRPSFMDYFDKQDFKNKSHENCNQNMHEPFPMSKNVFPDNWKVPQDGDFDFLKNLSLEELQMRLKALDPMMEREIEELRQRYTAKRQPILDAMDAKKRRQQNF", "test": "biochemical", "conditions": "read-out: % inhibition by neratinib"}, "[5]": {"target": "FGFR1 (Homo sapiens, UniProt P11362)", "sequence (P11362 22-822)": "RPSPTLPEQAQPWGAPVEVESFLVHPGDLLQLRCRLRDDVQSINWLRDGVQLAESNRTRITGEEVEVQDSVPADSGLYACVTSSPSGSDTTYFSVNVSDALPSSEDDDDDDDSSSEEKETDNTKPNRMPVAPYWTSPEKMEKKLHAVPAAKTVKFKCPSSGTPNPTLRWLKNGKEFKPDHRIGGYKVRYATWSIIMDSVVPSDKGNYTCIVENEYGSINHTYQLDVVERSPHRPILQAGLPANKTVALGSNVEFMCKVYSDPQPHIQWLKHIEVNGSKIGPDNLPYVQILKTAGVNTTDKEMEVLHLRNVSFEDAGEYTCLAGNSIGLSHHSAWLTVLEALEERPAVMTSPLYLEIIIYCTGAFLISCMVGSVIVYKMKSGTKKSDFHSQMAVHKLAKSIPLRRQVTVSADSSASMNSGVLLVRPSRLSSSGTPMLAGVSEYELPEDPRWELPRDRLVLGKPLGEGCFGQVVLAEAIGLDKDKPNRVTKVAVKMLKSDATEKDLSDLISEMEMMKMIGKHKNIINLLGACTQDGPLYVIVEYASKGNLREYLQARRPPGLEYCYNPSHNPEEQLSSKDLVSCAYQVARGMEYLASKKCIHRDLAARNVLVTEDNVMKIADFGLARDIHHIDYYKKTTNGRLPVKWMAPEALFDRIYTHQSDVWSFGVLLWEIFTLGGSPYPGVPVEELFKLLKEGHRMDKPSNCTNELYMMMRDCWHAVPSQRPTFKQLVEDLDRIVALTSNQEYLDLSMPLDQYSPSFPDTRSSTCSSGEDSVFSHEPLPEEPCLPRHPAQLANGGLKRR", "test": "Nanosyn kinase profiling, mobility shift assay", "conditions": "read-out: % inhibition by neratinib"}, "[6]": {"system": "INS-1E cells", "test": "Western blot of pMST1, caspase-3/PARP cleavage, PDX1, BIM under diabetogenic conditions", "format": "cell-based, rat", "protocol": ". pThr183), caspase-3 and PARP cleavage, PDX1, tubulin, and actin were analyzed by western blotting. Representative Western blots and pooled quantitative densitometry analysis are shown from three independent cell line experiments (n = 3). […]; all by Student’s t tests.\n. pThr183), caspase-3 and PARP cleavage, and BIM and actin were analyzed by western blotting. Representative Western blots (b) and pooled quantitative densitometry analysis (c) are shown from 3–6 independent culture dishes (n = 3–6). […]; all by Student’s t tests.\nHuman islets were isolated from eight pancreases of nondiabetic organ donors at PRODO Labs and at Lille University and cultured on extracellular matrix-coated dishes (Novamed, Jerusalem, Israel)[62] or on Biocoat Collagen I coated dishes (#356400, Corning, ME, USA). […] The clonal rat β-cell line INS-1E was kindly provided by Dr. Claes Wollheim, Geneva & Lund University. Human islets were cultured in complete CMRL-1066 (Invitrogen) medium at 5.5 mM glucose, mouse islets and INS-1E cells at complete RPMI-1640 medium at 11.1 mM glucose. […] . Palmitic acid (Sigma) was dissolved at 10 mmol/l in RPMI-1640 medium containing 11% fatty acid–free bovine serum albumin (BSA) (Sigma) under an N2-atmosphere and added to the culture at 0.5 mM[64]. […] . Isolated human islets or INS-1E cells were infected with adenovirus carrying LacZ as control or MST1 or LATS2 (all Vector Biolabs), at a multiplicity of infection of 100 (human islets) or 20 (INS-1E) for 4 h[11]. Adenovirus was subsequently washed off with PBS and replaced by fresh medium with 10% FBS and the respective analysis performed after 48 h post infection."}, "[7]": {"system": "MST1–LATS2 signaling", "test": "LATS-BS in vitro luciferase assay (MST1/LATS2 overexpression)", "conditions": "for Firefly/Renilla x1000 (MEAN): L2/Mst1 overexpression + 10 μM compound", "source_text": "Therefore a LATS-BS construct has been generated with fusion of YAP fragment and 14-3-3 with N-terminal and C-terminal firefly luciferase fragments (N-luc and C-luc), respectively that assesses LATS kinase activity by measuring the interaction between pS127-YAP and 14-3-3[35] in a MST1–LATS2-phosphorylation-dependent manner (Fig. 4a).\nAs internal transfection control, pRL-Renilla luciferase control reporter vector (Promega) was co-transfected into each sample. […] Luciferase signal was calculated based on the ratio of luciferase activity of LATS-BS to control reporter vector."}, "[8]": {"target": "CDK1 (Homo sapiens, UniProt P06493)", "sequence (P06493 whole entry)": "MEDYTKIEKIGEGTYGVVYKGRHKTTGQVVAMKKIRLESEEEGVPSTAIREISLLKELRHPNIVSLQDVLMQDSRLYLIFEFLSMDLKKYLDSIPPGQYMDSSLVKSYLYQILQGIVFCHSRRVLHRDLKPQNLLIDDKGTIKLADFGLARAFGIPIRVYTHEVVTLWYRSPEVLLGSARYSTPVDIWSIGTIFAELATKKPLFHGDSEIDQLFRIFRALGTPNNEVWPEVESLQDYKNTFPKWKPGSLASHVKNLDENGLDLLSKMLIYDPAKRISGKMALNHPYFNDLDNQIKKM", "sequence (P14635 whole entry partner)": "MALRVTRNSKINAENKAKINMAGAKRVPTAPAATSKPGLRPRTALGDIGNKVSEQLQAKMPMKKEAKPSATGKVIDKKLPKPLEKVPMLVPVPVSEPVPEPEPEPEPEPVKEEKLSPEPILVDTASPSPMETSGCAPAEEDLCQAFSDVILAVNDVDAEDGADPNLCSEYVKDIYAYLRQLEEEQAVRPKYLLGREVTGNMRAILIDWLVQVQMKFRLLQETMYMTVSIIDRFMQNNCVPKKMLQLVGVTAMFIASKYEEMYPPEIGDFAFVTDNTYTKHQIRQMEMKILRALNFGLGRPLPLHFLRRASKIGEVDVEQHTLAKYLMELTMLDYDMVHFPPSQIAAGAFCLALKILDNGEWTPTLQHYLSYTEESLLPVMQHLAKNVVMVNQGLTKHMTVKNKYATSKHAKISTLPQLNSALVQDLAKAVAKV", "test": "Nanosyn kinase profiling, mobility shift assay", "conditions": "read-out: % inhibition by neratinib"}, "[9]": {"target": "MET (Homo sapiens, UniProt P08581)", "sequence (P08581 25-1390)": "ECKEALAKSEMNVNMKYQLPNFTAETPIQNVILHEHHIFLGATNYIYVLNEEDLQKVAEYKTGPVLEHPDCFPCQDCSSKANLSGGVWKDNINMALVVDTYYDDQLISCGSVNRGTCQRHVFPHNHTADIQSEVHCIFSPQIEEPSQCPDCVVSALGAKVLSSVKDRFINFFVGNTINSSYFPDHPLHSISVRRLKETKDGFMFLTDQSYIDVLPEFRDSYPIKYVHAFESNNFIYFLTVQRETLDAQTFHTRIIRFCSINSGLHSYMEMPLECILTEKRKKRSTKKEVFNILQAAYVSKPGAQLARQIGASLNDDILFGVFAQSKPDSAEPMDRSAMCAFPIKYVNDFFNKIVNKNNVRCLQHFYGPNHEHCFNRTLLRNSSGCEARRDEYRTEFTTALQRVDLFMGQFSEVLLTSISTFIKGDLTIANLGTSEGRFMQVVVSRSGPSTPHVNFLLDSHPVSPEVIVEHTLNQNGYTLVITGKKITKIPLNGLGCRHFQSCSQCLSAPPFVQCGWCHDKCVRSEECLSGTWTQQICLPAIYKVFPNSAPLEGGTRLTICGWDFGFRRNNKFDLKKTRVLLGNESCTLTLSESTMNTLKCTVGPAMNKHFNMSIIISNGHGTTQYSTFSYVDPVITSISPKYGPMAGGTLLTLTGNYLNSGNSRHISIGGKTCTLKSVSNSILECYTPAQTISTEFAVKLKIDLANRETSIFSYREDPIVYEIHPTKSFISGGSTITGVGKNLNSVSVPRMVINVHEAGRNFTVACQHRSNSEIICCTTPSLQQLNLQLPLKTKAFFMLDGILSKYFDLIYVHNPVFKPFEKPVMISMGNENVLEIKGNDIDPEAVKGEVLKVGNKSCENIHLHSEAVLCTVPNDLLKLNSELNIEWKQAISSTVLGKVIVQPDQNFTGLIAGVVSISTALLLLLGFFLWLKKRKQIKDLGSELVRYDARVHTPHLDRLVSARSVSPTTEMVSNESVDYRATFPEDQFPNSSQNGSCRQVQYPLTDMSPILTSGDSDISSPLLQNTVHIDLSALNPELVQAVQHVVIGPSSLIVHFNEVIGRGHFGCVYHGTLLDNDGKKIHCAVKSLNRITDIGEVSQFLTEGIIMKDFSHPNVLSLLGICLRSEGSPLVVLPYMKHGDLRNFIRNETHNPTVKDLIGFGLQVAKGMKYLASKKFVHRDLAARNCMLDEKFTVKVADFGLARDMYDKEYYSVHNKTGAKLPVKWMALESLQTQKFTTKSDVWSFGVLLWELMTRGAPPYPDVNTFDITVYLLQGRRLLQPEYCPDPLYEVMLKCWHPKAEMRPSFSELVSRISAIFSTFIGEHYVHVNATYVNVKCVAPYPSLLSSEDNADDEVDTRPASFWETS", "test": "Nanosyn kinase profiling, mobility shift assay", "conditions": "read-out: % inhibition by neratinib"}}, "note": "Values joined by “and” are separate entries in the source; they are usually repeats but may differ in a detail not shown here. Equal entries are not always repeated.", "data": [{"smiles": "CCOc1cc2ncc(C#N)c(Nc3ccc(OCc4ccccn4)c(Cl)c3)c2cc1NC(=O)/C=C/CN(C)C", "note": "[neratinib]", "values": [{"measurement": "inhibition at 10 µM", "setting": "[1]; read-out: % inhibition by neratinib", "result": 98, "unit": "%"}, {"measurement": "inhibition at 3 µM", "setting": "[1]; read-out: MST1 inhibition", "result": 97, "unit": "%"}, {"measurement": "Ki67%/ mouse", "setting": "[2]; Mean", "result": 1.047, "unit": "%"}, {"measurement": "Ki67%/ mouse", "setting": "[2]; individual mice", "result": "0.4896% and 1.365% and 0.6515% and 1.681%"}, {"measurement": "Ki67%/ mouse", "setting": "[3]; NeraCtr group (no STZ), MEAN", "result": 0.3774, "unit": "%"}, {"measurement": "Ki67%/ mouse", "setting": "[3]; NeraCtr group (no STZ), individual mice", "result": "0% and 2% and 1.019%"}, {"measurement": "Ki67%/ mouse", "setting": "[3]; NeraSTZ group, MEAN", "result": 3.98, "unit": "%"}, {"measurement": "Ki67%/ mouse", "setting": "[3]; NeraSTZ group, individual mice", "result": "0% and 6.981% and 5.492% and 7.984% and 3.425%"}, {"measurement": "inhibition at 10 µM", "setting": "[4]", "result": 97, "unit": "%"}, {"measurement": "inhibition at 10 µM", "setting": "[5]", "result": 26, "unit": "%"}, {"measurement": "PDX1 expression reduced by elevated glucose", "setting": "[6]; 22.2 mM glucose, 72 h", "result": "restored PDX1 expression"}, {"measurement": "H2O2- and high glucose/palmitate-induced MST1 activation and apoptosis (caspase-3 and PARP cleavage)", "setting": "[6]; 72 h", "result": "potently inhibited"}, {"measurement": "mitochondrial BIM induction under diabetic conditions", "setting": "[6]; HG/Pal, 10 μM, 24 h", "result": "significantly reduced"}, {"measurement": "stress-induced MST1 activation and caspase-3 and PARP cleavage", "setting": "[6]; HG/Pal, 10 μM, 24 h", "result": "strongly counteracted"}, {"measurement": "MST1/LATS2-induced luciferase activity (LATS-BS)", "setting": "[7]; 10 μM, last 24 h", "result": "strongly inhibited"}, {"measurement": "Firefly/Renilla x1000 (MEAN)", "setting": "[7]; mean of six dishes", "result": 10.9109}, {"measurement": "Firefly/Renilla x1000 (MEAN)", "setting": "[7]; single culture dishes", "result": 12.1618}, {"measurement": "inhibition at 10 µM", "setting": "[8]", "result": 14, "unit": "%"}, {"measurement": "inhibition at 10 µM", "setting": "[9]", "result": 28, "unit": "%"}]}]}
